Results reported in paper PMC9394284, “Discovery of Novel Dual Adenosine A2A and A1 Receptor Antagonists with 1H-Pyrazolo[3,4-d]pyrimidin-6-amine Core Scaffold as Anti-Parkinson’s Disease Agents” (Pharmaceuticals, 2022).
pIC50: −log10 of the molar value. Entries after “also recorded” stand apart in the source; their conditions may differ. Where two headings read alike, the source gives them in different places.

Tests used:
[1] = pharmacokinetics and brain/plasma ratio in mouse brain; assay type: in vivo, Crl:CD-1 mice; details: male; for AUC(0-t) / Cmax / Tmax / half-life: mouse brain
Method: Male Crl:CD-1 mice of 9~10 weeks of age were purchased from Charles River Laboratories, USA and maintained at standard food and water ad libitum in temperature-controlled room with 12 h on-off light cycle before the experiment. All procedures described were reviewed and approved by the Institutional Animal Care and Use Committee (IACUC) at Frontage Laboratories Inc. For PO dosing, mice were given 11o dissolved in DMSO: PEG400 (1:3, v:v) via gavage. For IV dosing, 11o solubilized in DMSO: PEG400: saline (1:3:6, v:v) were injected into tail veins at dose volume of 1 mL/kg. For IN dosing, 11o solubilized in DMSO and 25 μL of the appropriate dosing solution was placed near the nares to allow animal to inhale the dose. Three mice were sampled from each group for each blood and brain collection time point. Time points are 0.5, 1, 2, 4, 8, 24 h for PO and IN dosing and 0.083, 1, 2, 4, 8 and 24 h for IV dosing. Mice were euthanized by terminal retro-orbital blood collection under isoflurane anesthesia, followed by opening of the thoracic cavity per facility SOPs. A target volume of 1 mL was collected into tubes containing K3EDTA anti-coagulant, inverted several times and held on wet ice until centrifuged under refrigeration (set at 5 °C for 10 min at 2000× g). Resulting plasma were stored in a freezer set to maintain −70 °C until analyzed for 11o concentration. Brain was removed from each animal and weighed following termination, snap frozen and stored until later use. Plasma and brain PK analysis was conducted using WinNolin Version 6.2.1 (Pharsight, Mountain View, CA, USA), operating as a validated software system. Noncompartmental analysis was conducted using the extravascular administration model for oral dosing and the IV bolus model for IV dosing. The peak plasma and brain concentration, time to achieve peak plasma concentration, half-life, and area under the plasma concentration-time curve (Cmax, Tmax, T1/2 and AUC) were calculated from mean plasma concentrations for each sampling time/dose group for 11o. Nominal blood collection times were used for calculation of PK parameters. Dose proportionality was assessed, and bioavailability was calculated for PO dosing.

TA98 and TA100 = experiment: AMES bacterial reverse-mutation test; assay type: cell-based; details: up to 1867 μg/plate; TA98 and TA100, with and without S9
Method: The mutagenic potential of 11o was also tested by assessing its ability to reverse mutations in a bacterial mutagenesis study.
AMES bacterial reverse-mutation test was performed at Frontage laboratories inc. (Frontage laboratories, Concord, OH, USA) according to testing facility’s standard operating procedures (SOPs) following OECD guideline 471, “Bacterial Reverse Mutation Test”, and ICH S2(R1), “Guidance on Genotoxicity Testing and Data Interpretation for Pharmaceuticals Intended for Human Use”[19]. Briefly, test system was exposed to test article via plate-incorporation methodology originally described by Ames et al. and updated by Maron and Ames. […] For mutagenicity assay, TA98 and TA100 (tester strains source: Molecular Toxicology Inc. (Boone, NC, USA). TA98 lot number 5464D, part number 71–098L; TA100 lot number 5439D, part number 71–100L) was exposed to vehicle alone and at least 8 concentrations of 11o, with duplicate plates/condition, in both the presence and absence of S9 using the plate incorporation method. […] Following incubation, plates were examined for the condition of the bacterial background lawn and precipitate and recorded. Colonies were enumerated either by visually or by an automatic colony counter (Scan 1200 Automated colony counter and scan software).

A2A adenosine receptor = A2A adenosine receptor (Homo sapiens, UniProt P29274); experiment: cyclic AMP HTRF functional assay, HEK-293 (A2A); assay type: cell-based; details: HEK-293 cells
Method: Next, the functional activity of 11o against A1 and A2A adenosine receptors was evaluated using c-AMP assay in CHO-K1 (A1) and HEK-293 (A2A) cells.
For functional studies, A1 and A2A receptor cyclic AMP HTRF (homogeneous time resolved fluorescence) assay was performed at EuroscreenFast (Charleroi, Belgium) using CHO-K1 (A1) and HEK293 (A2A) stable cell line with CPA (A1) and NECA (A2A) as reference agonist and DPCPX (A1) and ZM241385 (A2A) as reference antagonist compound.

[2] = Crl:CD-1, inhaled or intranasal, 1 mg/kg IN
[3] = Crl:CD-1, inhaled or intranasal, 3 mg/kg IN
[4] = Crl:CD-1, inhaled or intranasal, 10 mg/kg IN

Chain of A2A adenosine receptor (P29274 whole entry): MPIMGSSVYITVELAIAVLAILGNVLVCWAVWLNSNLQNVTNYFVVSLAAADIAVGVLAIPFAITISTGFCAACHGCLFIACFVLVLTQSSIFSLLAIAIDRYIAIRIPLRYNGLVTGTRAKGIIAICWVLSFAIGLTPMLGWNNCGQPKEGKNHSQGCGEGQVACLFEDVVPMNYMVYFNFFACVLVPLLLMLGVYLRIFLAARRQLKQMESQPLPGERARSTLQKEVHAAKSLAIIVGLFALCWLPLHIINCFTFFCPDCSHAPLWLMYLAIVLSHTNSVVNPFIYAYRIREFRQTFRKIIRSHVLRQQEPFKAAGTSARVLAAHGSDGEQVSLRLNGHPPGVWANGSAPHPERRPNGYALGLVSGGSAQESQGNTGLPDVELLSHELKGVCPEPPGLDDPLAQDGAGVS

Cc1cc(Cn2ncc3c(-c4cccc(C#N)c4F)nc(N)nc32)ccc1N [11o, 3-(6-Amino-1-(4-amino-3-methylbenzyl)-1H-pyrazolo[3,4-d]pyrimidin-4-yl)-2-fluorobenzonitrile]
Kp ([1]; Crl:CD-1, brain/plasma, other: intranasal (IN), placed near the nares, mouse, IN 1, 3 and 10 mg/kg, read-out: B/P ratio, IN dosing groups): 0.0698 to 0.183 | Kp ([1]; Crl:CD-1, brain/plasma, mouse, PO 1, 3 and 10 mg/kg, read-out: B/P ratio, PO dosing groups): 0.0242 to 0.167 | AUC(0-t) [1, 2]: 5.23 ng·h/mL | Cmax [1, 2]: 9.63 ng/mL | Tmax [1, 2]: 0.5 h | AUC(0-t) [1, 3]: 14.2 ng·h/mL | Cmax [1, 3]: 15.9 ng/mL | Tmax [1, 3]: 0.5 h | AUC(0-t) [1, 4]: 81.3 ng·h/mL | Cmax [1, 4]: 38.2 ng/mL | Tmax [1, 4]: 0.5 h | half-life [1, 4]: 3.74 h | Kp ([1]; Crl:CD-1, mouse, other: IN (intranasal, placed near the nares to inhale), 10 mg/kg IN, Brain AUClast/Plasma AUClast, read-out: B/P Ratio): 0.183 | Kp ([1]; Crl:CD-1, mouse, other: IN dosing, solution placed near the nares to inhale, 1 mg/kg IN, Brain AUClast/Plasma AUClast, read-out: B/P Ratio): 0.0698 | Kp ([1]; Crl:CD-1, mouse, other: IN dosing, solution placed near the nares to inhale, 3 mg/kg IN, Brain AUClast/Plasma AUClast, read-out: B/P Ratio): 0.0776 | Kp ([1]; Crl:CD-1, mouse, 1 mg/kg IV, Brain AUClast/Plasma AUClast, read-out: B/P Ratio): 0.741 | Kp ([1]; Crl:CD-1, mouse, 1 mg/kg PO, Brain AUClast/Plasma AUClast, read-out: B/P Ratio): 0.0242 | Kp ([1]; Crl:CD-1, mouse, 3 mg/kg PO, Brain AUClast/Plasma AUClast, read-out: B/P Ratio): 0.0977 | Kp ([1]; Crl:CD-1, mouse, 10 mg/kg PO, Brain AUClast/Plasma AUClast, read-out: B/P Ratio): 0.167 | AUC(0-t) ([1]; Crl:CD-1, 1 mg/kg IV): 246 ng·h/mL | Cmax ([1]; Crl:CD-1, 1 mg/kg IV): 410 ng/mL | Tmax ([1]; Crl:CD-1, 1 mg/kg IV): 0.083 h | AUC(0-t) ([1]; Crl:CD-1, 1 mg/kg PO): 4.26 ng·h/mL | Cmax ([1]; Crl:CD-1, 1 mg/kg PO): 5.58 ng/mL | Tmax ([1]; Crl:CD-1, 1 mg/kg PO): 2 h | AUC(0-t) ([1]; Crl:CD-1, 3 mg/kg PO): 56.4 ng·h/mL | Cmax ([1]; Crl:CD-1, 3 mg/kg PO): 12.8 ng/mL | Tmax ([1]; Crl:CD-1, 3 mg/kg PO): 0.5 h | half-life ([1]; Crl:CD-1, 3 mg/kg PO): 3.23 h | AUC(0-t) ([1]; Crl:CD-1, 10 mg/kg PO): 375 ng·h/mL | Cmax ([1]; Crl:CD-1, 10 mg/kg PO): 48.1 ng/mL | Tmax ([1]; Crl:CD-1, 10 mg/kg PO): 2 h | half-life ([1]; Crl:CD-1, 10 mg/kg PO): 7.71 h | AMES mutagenicity (TA98 and TA100): did not cause any positive mutagenic response; also recorded: no mutagenicity up to 1867 μg/plate | functional activity at A2A receptor (A2A adenosine receptor): full antagonism | pIC50 (A2A adenosine receptor; read-out: IC50, A2A functional antagonism (c-AMP)): 6.87
